Each structure is given as a SMILES string.

The source of these data is patent publication US6723727B1, “Substituted purine derivatives, processes for their preparation, their use, and compositions comprising them” (Hoechst Aktiengesellschaft, priority 1996, dated 2004).

For one assay, the target named is human vitronectin receptor αvβ3 (Homo sapiens, UniProt P05106+P06756). The assay is described as follows: Inhibition of binding of kistrin to human vitronectin receptor (αvβ3 ELISA test, K/VnR).
human vitronectin receptor αvβ3, sequence (P06756 31-889 limits assumed): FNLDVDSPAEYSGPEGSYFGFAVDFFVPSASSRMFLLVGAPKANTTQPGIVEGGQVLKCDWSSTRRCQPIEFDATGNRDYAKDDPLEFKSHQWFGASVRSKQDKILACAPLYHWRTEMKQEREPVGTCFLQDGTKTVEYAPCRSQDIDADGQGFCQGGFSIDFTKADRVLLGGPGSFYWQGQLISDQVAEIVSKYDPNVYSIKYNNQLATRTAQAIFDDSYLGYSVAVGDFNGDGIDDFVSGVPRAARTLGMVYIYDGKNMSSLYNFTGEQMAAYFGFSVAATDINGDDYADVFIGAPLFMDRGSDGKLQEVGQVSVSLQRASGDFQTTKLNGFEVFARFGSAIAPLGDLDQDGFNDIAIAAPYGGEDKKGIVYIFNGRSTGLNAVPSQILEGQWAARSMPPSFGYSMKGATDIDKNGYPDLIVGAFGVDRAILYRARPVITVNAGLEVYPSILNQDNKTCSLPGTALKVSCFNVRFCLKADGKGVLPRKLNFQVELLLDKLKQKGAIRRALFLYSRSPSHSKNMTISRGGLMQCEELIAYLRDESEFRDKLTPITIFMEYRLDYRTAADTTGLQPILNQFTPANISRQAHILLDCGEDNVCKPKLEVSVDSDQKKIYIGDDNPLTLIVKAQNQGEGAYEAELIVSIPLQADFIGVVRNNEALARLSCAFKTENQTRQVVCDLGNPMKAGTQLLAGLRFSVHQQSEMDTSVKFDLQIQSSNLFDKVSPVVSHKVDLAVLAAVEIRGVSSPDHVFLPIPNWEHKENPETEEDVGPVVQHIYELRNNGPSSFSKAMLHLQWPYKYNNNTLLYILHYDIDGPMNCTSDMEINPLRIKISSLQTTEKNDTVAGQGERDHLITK
human vitronectin receptor αvβ3, sequence (P06756 891-1048 limits assumed): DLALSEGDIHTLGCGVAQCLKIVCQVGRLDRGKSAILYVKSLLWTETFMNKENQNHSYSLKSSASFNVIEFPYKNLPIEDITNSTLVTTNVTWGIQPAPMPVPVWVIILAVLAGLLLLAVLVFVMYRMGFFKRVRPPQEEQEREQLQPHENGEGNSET
human vitronectin receptor αvβ3, sequence (P05106 27-788): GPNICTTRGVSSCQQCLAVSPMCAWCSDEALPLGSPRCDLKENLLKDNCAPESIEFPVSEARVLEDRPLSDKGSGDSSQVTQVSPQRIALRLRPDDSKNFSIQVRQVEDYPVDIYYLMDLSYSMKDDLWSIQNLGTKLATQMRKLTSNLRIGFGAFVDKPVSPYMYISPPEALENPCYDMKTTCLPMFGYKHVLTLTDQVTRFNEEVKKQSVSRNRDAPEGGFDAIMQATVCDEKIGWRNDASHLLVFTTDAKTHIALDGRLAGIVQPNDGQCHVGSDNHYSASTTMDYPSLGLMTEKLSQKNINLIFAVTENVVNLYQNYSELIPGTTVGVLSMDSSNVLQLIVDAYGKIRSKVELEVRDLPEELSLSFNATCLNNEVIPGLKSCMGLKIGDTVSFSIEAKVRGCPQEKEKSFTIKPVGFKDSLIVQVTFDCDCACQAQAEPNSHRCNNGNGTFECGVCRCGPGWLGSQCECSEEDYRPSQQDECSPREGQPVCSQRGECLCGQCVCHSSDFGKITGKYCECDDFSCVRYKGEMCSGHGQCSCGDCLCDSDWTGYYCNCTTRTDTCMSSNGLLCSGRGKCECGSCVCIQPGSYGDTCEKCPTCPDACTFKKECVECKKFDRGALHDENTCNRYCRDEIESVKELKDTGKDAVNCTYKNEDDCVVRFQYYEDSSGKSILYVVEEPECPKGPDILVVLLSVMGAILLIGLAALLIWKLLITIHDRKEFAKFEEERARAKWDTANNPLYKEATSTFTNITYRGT
Conditions: not given
Background: In an ELISA, binding on a coated surface is turned into a signal by an enzyme label.
Usually IC50 stands for the concentration at which inhibition is half-maximal. Higher therefore signals weaker potency. `O=C(N[C@@H](CNc1ncnc2c1ncn2CCCCNC1=NCCN1)C(=O)O)OCc1ccccc1` [Example 18] returned a half-maximal inhibitory concentration (IC50) of 75 nM.
Still for that read-out and setting: for `N=C(N)NCC1CCN(c2ncnc3c2ncn3C[C@H](NC(=O)OCc2ccccc2)C(=O)O)CC1` [Example 26, 2S-Benzyloxycarbonylamino-3-(6-(4-(guanidinomethyl)piperidin-1-yl)purin-9-yl)propionic Acid] the value was 360 nM; for `O=C(N[C@@H](Cn1cnc2c(NCCCCNC3=NCCN3)ncnc21)C(=O)O)OCc1ccccc1` [Example 4, N^6-(1-(4-(4,5-Dihydro-1H-imidazol-2-ylamino)butyl))-N^9-(3-(2S-(benzyloxycarbonylamino)propionic acid))-adenine], 150 nM; for `N=C(N)NCCCCNc1ncnc2c1ncn2C[C@H](NC(=O)OCc1ccccc1)C(=O)O` [Example 2, N^6-(1-(4-Guanidinobutyl))-N^9-(3-(2S-(benzyloxycarbonylamino)propionic acid))-adenine], 700 nM.
Molecule `N=C(N)NCCCNc1ncnc2c1ncn2C[C@H](NC(=O)OCc1ccccc1)C(=O)O` [Example 3, N^6-(1-(3-Guanidinopropyl))-N^9-(3-(2S-(benzyloxycarbonylamino)propionic acid))-adenine] showed a half-maximal inhibitory concentration (IC50) of 2200 nM.
On the same count and under the same terms, in the case of `N=C(N)NCCCCCn1cnc2c(NC[C@H](NC(=O)OCc3ccccc3)C(=O)O)ncnc21` [Example 14, N^6-(3-(2S-(Benzyloxycarbonylamino)propionic acid))-N^9-(1-(5-guanidinyl-pentyl))-adenine] it was 650 nM; in that of `O=C(N[C@H](Cn1cnc2c(N3CCC(CNC4=NCCN4)CC3)ncnc21)C(=O)O)OCc1ccccc1` [Example 25, 2R-Benzyloxycarbonylamino-3-(6-(4-((4,5-dihydro-1H-imidazol-2-ylamino)-methyl)piperidin-1-yl)purin-9-yl)propionic Acid], 345 nM; in that of `O=C(N[C@@H](Cn1cnc2c(N3CCC(CNC4=NCCN4)CC3)ncnc21)C(=O)O)OCc1ccccc1` [Example 24, 2S-Benzyloxycarbonylamino-3-(6-(4-((4,5-dihydro-1H-imidazol-2-ylamino)-methyl)piperidin-1-yl)purin-9-yl)propionic Acid], 52 nM.
Turning to `O=C(N[C@@H](CNc1ncnc2c1ncn2CCCCCNC1=NCCN1)C(=O)O)OCc1ccccc1` [Example 15, N^6-(3-(2S-(Benzyloxycarbonylamino)propionic acid))-N^9-(1-(5-(4,5-dihydro-1H-imidazol-2-ylamino)pentyl))-adenine], the IC50 worked out at 210 nM.
Still for that read-out and setting: for `N=C(N)NCCCCn1cnc2c(NC[C@H](NC(=O)OCc3ccccc3)C(=O)O)ncnc21` [Example 17, N^6-(3-(2S-(Benzyloxycarbonylamino)propionic acid))-^9-(1-(4guanidinyl-butyl))-adenine] the value was 170 nM.
Same read-out and setting: in the case of `N=C(N)NCCCn1cnc2c(NC[C@H](NC(=O)OCc3ccccc3)C(=O)O)ncnc21` [Example 16, N^6-(3-(2S-(Benzyloxycarbonylamino)propionic acid))-N^9-(1-(3-guanidinylpropyl))-adenine] it was 540 nM; in that of `O=C(N[C@@H](CCNc1ncnc2c1ncn2CCCNC1=NCCN1)C(=O)O)OCc1ccccc1` [Example 13, N^6-(4-(2S-(Benzyloxycarbonylamino)butyric acid))-N^9-(1-(3-(4,5-dihydro-1H-imidazol-2-ylamino)propyl))-adenine], 190 nM; in that of `O=C(N[C@@H](Cn1cnc2c(N3CCC(C(=O)NC4=NCCCN4)CC3)ncnc21)C(=O)O)OCc1ccccc1` [Example 19, 2S-Benzyloxycarbonylamino-3-(6-(4-(1,4,5,6-tetrahydropyrimidin-2-yl-carbamoyl)piperidin-1-yl)purin-9-yl)propionic acid], 4 nM.
On the same count and under the same terms, in the case of `O=C(N[C@@H](Cn1cnc2c(NCCCCNc3nc4ccccc4[nH]3)ncnc21)C(=O)O)OCc1ccccc1` [Example 23, 3-(6-((4-(Benzimidazol-2-ylamino)butyl)amino)purin-9-yl)-2S-benzyloxycarbonylaminopropionic Acid] it was 160 nM; in that of `N=C(N)NCCCCCNc1ncnc2c1ncn2C[C@H](NC(=O)OCc1ccccc1)C(=O)O` [Example 1, N^6-(1-(5-Guanidinopentyl))-N^9-(3-(2S-(benzyloxycarbonylamino)propionic acid))-adenine], 1100 nM.
Molecule `N=C(N)NCCCn1cnc2c(NCC[C@H](NC(=O)OCc3ccccc3)C(=O)O)ncnc21` [Example 12, N^6-(4-(2S-(Benzyloxycarbonylamino)butyric acid))-N^9-(1-(3-guanidinylpropyl))-adenine] yielded an IC50 of 580 nM.

Still in this assay, the particulars now being: 10 μM test compound.
On to `NCCCn1cnc2c(NC[C@H](NC(=O)OCc3ccccc3)C(=O)O)ncnc21` [Example 16b, N^6-(3-(2S-(Benzyloxycarbonylamino)propionic acid))-N^9-(1-(3-amino-propyl))-adenine], for which the “K/VnR Inhibition at 10 μM (in %)” value is 29%.
For the molecule `NCCCCCn1cnc2c(NC[C@H](NC(=O)OCc3ccccc3)C(=O)O)ncnc21` [Example 14c, N^6-(3-(2S-(Benzyloxycarbonylamino)propionic acid))-N^9-(1-(5-amino-pentyl))-adenine], the “K/VnR Inhibition at 10 μM (in %)” value is recorded as 22%.
